Results: patent US20250145598A1, “ACID CERAMIDASE INHIBITORS AND USES THEREOF” (The Regents of the University of California, priority 2021, published 2025)

Target: T1, Acid ceramidase (Homo sapiens, UniProt Q13510)
T1 sequence (Q13510 22-395): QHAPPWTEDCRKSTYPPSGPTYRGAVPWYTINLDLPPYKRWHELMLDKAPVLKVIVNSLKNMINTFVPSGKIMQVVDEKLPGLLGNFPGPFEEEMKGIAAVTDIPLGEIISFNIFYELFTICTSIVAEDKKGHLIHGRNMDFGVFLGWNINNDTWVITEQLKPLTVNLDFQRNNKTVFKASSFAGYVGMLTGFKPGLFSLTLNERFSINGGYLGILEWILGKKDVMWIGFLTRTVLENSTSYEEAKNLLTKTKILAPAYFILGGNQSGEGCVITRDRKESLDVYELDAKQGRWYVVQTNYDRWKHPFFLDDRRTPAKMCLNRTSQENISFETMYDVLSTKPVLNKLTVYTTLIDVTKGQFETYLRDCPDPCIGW
Experiment: Acid ceramidase assay (AC in vitro IC50)
Format: biochemical
Conditions: Acid ceramidase assay data of example compounds

Row | IC50 | Compound
1 | < 300 nM | CS(=O)(=O)c1ccc(COc2ccc(-c3cn(C(=O)NCC4CCN(c5ccc6c(c5)CCO6)C4)cn3)cc2)cc1 (centres unmarked) [AC2020601-0506, N-((1-(2,3-dihydrobenzofuran-5-yl)pyrrolidin-3-yl)methyl)-4-(4-(4-(methylsulfonyl)benzyloxy)phenyl)-1H-imidazole-1-carboxamide]
2 | < 300 nM | N#CCS(=O)(=O)c1ccc(COc2ccc(-c3cn(C(=O)NCC4CCN(c5ccccc5)C4)cn3)cc2)cc1 (centres unmarked) [AC2020601-0507, 4-(4-(4-(cyanomethylsulfonyl)benzyloxy)phenyl)-N-((1-phenylpyrrolidin-3-yl)methyl)-1H-imidazole-1-carboxamide]
